How the values were obtained:
GBM [1] = assay: Synergistic antiproliferative activity against patient-derived GBM cells assessed as cell viability after 48 hrs in presence of temozolomide by 5-Ethynyl-2'-deoxyuridine incorporation assay; format: functional, cell-based; settings: Homo sapiens
GBM [2] = assay: Cytotoxicity against patient-derived GBM cells assessed as LDH release after 96 hrs by spectrophotometric method; format: functional, cell-based; settings: Homo sapiens
GBM [3] = assay: Antiproliferative activity against patient-derived GBM cells assessed as reduction in cell viability after 48 hrs by 5-Ethynyl-2'-deoxyuridine incorporation assay; format: functional, cell-based; settings: Homo sapiens
GBM [4] = assay: cells; format: functional, cell-based; settings: Homo sapiens, 48 h
Description: Synergistic antiproliferative activity against patient-derived GBM cells assessed as reduction in cell viability after 48 hrs in presence of temozolomide by 5-Ethynyl-2'-deoxyuridine incorporation assay

GBM [5] = assay: Antiproliferative activity against patient-derived GBM cells assessed as cell viability after 48 hrs by 5-Ethynyl-2'-deoxyuridine incorporation assay; format: functional, cell-based; settings: Homo sapiens
GBM [6] = assay: Selectivity ratio of EC50 for antiproliferative activity against patient-derived GBM cells to EC50 for antiproliferative activity against patient-derived GBM cells in presence of temozolomide; format: functional, Homo sapiens
GBM [7] = assay: Selectivity ratio of IC50 for antiproliferative activity against patient-derived GBM cells to IC50 for antiproliferative activity against patient-derived GBM cells in presence of temozolomide; format: functional, Homo sapiens

| IC50 (GBM [4]) [µM] | Compound | EC50 (GBM [1]) [µM] | EC50 (GBM [2]) [µM] | IC50 (GBM [3]) [µM] | EC50 (GBM [5]) [µM] | Ratio EC50 (GBM [6]) | Ratio IC50 (GBM [7]) |
| --- | --- | --- | --- | --- | --- | --- | --- |
| 0.001 | C[C@@H](Oc1cc(-c2cnn(C3CCN(C4=C(/C=C/C5=[N+](C)c6ccccc6C5(C)C)CCC/C4=C\C=C4\N(C)c5ccccc5C4(C)C)CC3)c2)cnc1N)c1c(Cl)ccc(F)c1Cl.[I-] | 0.015 | 0.0931 | 0.0047 | 0.05 | 3 | – |
| 0.48 | C[C@@H](Oc1cc(-c2cnn(C3CCNCC3)c2)cnc1N)c1c(Cl)ccc(F)c1Cl [CRIZOTINIB] | 3.2 | 4.3 | 0.54 | 5.6 | 1.7 | 1.13 |

From ChEMBL document CHEMBL4346759, “The synthesis of a novel Crizotinib heptamethine cyanine dye conjugate that potentiates the cytostatic and cytotoxic effects of Crizotinib in patient-derived glioblastoma cell lines” (Bioorg Med Chem Lett, 2019)
